Consider 32 molecules from patent publication US20090069320A1, “Substituted 4-Amino-Quinazoline Compounds with Metabotropic Glutamate Receptor Regulating Activity and Uses Thereof” (Gruenenthal GmbH, priority 2006, published 2009).

Counter-ions that a name gives are not always drawn. Like-named read-outs stand apart in the source and are kept apart here.

The assay has as its target T1, mGluR5 receptor (Sus scrofa, UniProt I3LUI7).
T1 construct: 450 μg of protein from brain homogenate with 5 nM ^3[H]-MPEP; from tissue; host or cells: pig brain halves without medulla, cerebellum and pons
The assay can be described thus: [3H]-MPEP mGluR5 receptor binding assay (pig brain homogenate). The conditions noted are these: 5 nM [3H]-MPEP; for inhibition at 10 µM: 10 μM compound, read-out: % Inhibition of mGluR5 Receptor (pig) [^3H]-MPEP Bond at 10 μM. As for the experimental part:
I. Method for Determining the Inhibition of the [^3H]-MPEP Bond in the mGluR5 Receptor Binding Assay
Pig brain homogenate is produced by homogenizing (Polytron PT 3000, Kinematica AG, 10 000 rpm for 90 seconds) pig brain halves without medulla, cerebellum and pons in pH 8.0 buffer (20 mM Hepes, Sigma, order no. H3375+1 complete tablet, 100 ml, Roche Diagnostics, order no. 1836145) in the ratio of 1:20 (brain weight/volume) and differential centrifuging at 900×g and 40 000×g. In incubation batches of 250 μl in 96-well microtitre plates 450 μg of protein from brain homogenate with 5 nM ^3[H]-MPEP (Tocris, order no. R1212) (MPEP=[…]) and the compounds to be examined (10 μM in test) in buffer (as above) are respectively incubated at room temperature for 60 minutes.
The batches are then filtered using a Brandel cell harvester (Brandel, Robotic 9600) on unifilter plates with fibreglass filter mats (Perkin Elmer, order no. 6005177) and then washed with buffer (as above) 3-times each with 250 μl per sample. The filter plates are then dried for 60 mins. at 55° C. Then, 30 μL of Ultima Gold™ scintillator (Packard BioScience, order no. 6013159) are added per well and after 3 hours the samples are measured on the β-counter (MicroBeta, Perkin Elmer). The non-specific binding is determined by adding 10 μM of MPEP (Tocris, order no. 1212).

The mark [1] stands for this setting: read-out: IC50 mGluR5 Receptor (pig) [^3H]-MPEP Bond.

T1 sequence (I3LUI7 19-1212): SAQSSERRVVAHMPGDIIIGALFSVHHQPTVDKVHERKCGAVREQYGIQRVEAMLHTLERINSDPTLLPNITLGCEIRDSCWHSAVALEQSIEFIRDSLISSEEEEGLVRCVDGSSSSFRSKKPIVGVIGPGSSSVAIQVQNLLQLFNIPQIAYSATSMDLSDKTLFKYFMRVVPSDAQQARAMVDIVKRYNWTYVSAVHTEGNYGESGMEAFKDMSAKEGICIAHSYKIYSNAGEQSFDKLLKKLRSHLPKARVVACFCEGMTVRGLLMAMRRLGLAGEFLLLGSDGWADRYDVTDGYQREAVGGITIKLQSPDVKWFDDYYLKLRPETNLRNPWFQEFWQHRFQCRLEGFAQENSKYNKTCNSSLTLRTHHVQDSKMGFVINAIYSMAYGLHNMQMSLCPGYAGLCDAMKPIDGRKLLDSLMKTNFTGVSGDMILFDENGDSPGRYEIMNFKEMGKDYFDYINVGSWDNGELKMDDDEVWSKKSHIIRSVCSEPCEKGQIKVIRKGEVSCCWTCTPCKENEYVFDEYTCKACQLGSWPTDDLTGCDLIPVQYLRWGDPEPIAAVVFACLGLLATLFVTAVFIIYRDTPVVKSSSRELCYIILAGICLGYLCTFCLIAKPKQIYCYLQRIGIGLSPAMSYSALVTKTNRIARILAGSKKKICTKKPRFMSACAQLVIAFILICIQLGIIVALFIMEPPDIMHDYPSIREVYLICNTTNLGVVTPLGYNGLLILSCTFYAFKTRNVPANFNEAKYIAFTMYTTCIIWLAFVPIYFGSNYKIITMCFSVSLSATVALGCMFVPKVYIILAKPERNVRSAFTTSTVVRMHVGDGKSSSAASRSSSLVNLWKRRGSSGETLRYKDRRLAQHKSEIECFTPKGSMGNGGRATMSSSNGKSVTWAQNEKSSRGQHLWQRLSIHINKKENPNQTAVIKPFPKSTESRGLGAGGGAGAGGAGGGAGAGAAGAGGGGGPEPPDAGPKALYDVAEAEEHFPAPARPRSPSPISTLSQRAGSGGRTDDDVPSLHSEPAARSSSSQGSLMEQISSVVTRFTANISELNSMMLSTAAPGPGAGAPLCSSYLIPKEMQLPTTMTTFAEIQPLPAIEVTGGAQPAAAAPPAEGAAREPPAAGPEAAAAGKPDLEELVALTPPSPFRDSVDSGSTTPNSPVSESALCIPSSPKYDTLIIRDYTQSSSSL

For the molecule `O=C(c1ccncc1)N(Cc1cccc(-c2ccc3ncnc(NC4CC4)c3c2)c1)C1CC1` [Example 165, N-cyclopropyl-N-[3-(4-cyclopropylamino-quinazolin-6-yl)-benzyl]-isonicotinamide], the inhibition at 10 µM was found to be 88%. Still for that read-out and setting: for `O=C(c1ccc(Br)s1)N(Cc1cccc(-c2ccc3ncnc(NC4CC4)c3c2)c1)C1CC1` [Example 166, 5-bromo-thiophene-2-carboxylic acid cyclopropyl-[3-(4-cyclopropylamino-quinazolin-6-yl)-benzyl]-amide] the value was 86%; for `O=C(c1ccccc1C(F)(F)F)N(Cc1cccc(-c2ccc3ncnc(NC4CC4)c3c2)c1)C1CC1` [Example 167, N-cyclopropyl-N-[3-(4-cyclopropylamino-quinazolin-6-yl)-benzyl]-2-trifluoromethyl-benzamide], 98%; for `CCCC(=O)N(Cc1cccc(-c2ccc3ncnc(NC4CC4)c3c2)c1)C1CC1` [Example 168, N-cyclopropyl-N-[3-(4-cyclopropylamino-quinazolin-6-yl)-benzyl]-butyramide], 90%. Still for that read-out and setting: the same measure for `O=C(c1ccco1)N(Cc1cccc(-c2ccc3ncnc(NC4CC4)c3c2)c1)C1CC1` [Example 169, furan-2-carboxylic acid cyclopropyl-[3-(4-cyclopropylamino-quinazolin-6-yl)-benzyl]-amide]: 91%; for `O=C(c1ccccn1)N(Cc1cccc(-c2ccc3ncnc(NC4CC4)c3c2)c1)C1CC1` [Example 170, pyridine-2-carboxylic acid cyclopropyl-[3-(4-cyclopropylamino-quinazolin-6-yl)-benzyl]-amide]: 78%. Take `COc1ccc(C(=O)N(Cc2cccc(-c3ccc4ncnc(NC5CC5)c4c3)c2)C2CC2)cc1` [Example 171, N-cyclopropyl-N-[3-(4-cyclopropylamino-quinazolin-6-yl)-benzyl]-4-methoxy-benzamide]: the inhibition at 10 µM was found to be 100%. The same measure, in the same setting: the same measure for `O=C(c1ccccc1Cl)N(Cc1cccc(-c2ccc3ncnc(NC4CC4)c3c2)c1)C1CC1` [Example 172, 2-chloro-N-cyclopropyl-N-[3-(4-cyclopropylamino-quinazolin-6-yl)-benzyl]-benzamide]: 99%; for `CN(C)CC(=O)N(Cc1cccc(-c2ccc3ncnc(NC4CC4)c3c2)c1)C1CC1` [Example 173, N-cyclopropyl-N-[3-(4-cyclopropylamino-quinazolin-6-yl)-benzyl]-2-dimethylamino-acetamide]: 30%. In the case of `O=C(Cc1ccccn1)N(Cc1cccc(-c2ccc3ncnc(NC4CC4)c3c2)c1)C1CC1` [Example 174, N-cyclopropyl-N-[3-(4-cyclopropylamino-quinazolin-6-yl)-benzyl]-2-pyridin-2-yl-acetamide], the inhibition at 10 µM was 97%.

For `Cc1ccc(C(=O)N(C)Cc2cccc(-c3ccc4ncnc(NC5CC5)c4c3)c2)cc1` [Example 175, N-[3-(4-cyclopropylamino-quinazolin-6-yl)-benzyl]-4,N-dimethyl-benzamide], the inhibition at 10 µM is 85%. Same read-out and setting: for `N#Cc1cccc(C(=O)N(Cc2cccc(-c3ccc4ncnc(NC5CC5)c4c3)c2)C2CC2)c1` [Example 176, 3-cyano-N-cyclopropyl-N-[3-(4-cyclopropylamino-quinazolin-6-yl)-benzyl]-benzamide] the value was 76%. Regarding `O=C(c1ccc(C(F)(F)F)cc1F)N(Cc1cccc(-c2ccc3ncnc(NC4CC4)c3c2)c1)C1CC1` [Example 177, N-cyclopropyl-N-[3-(4-cyclopropylamino-quinazolin-6-yl)-benzyl]-2-fluoro-4-trifluoromethyl-benzamide], the inhibition at 10 µM was determined as 97%. The same measure, in the same setting: for `O=C(c1cccs1)N(Cc1cccc(-c2ccc3ncnc(NC4CC4)c3c2)c1)C1CC1` [Example 178, thiophene-2-carboxylic acid cyclopropyl-[3-(4-cyclopropylamino-quinazolin-6-yl)-benzyl]-amide] the value was 84%; for `O=C(c1ccc(Cl)nc1)N(Cc1cccc(-c2ccc3ncnc(NC4CC4)c3c2)c1)C1CC1` [Example 179, 6-chloro-N-cyclopropyl-N-[3-(4-cyclopropylamino-quinazolin-6-yl)-benzyl]-nicotinamide], 89%.

In the case of `O=C1COCC(=O)N1Cc1cc(-c2ccc3ncnc(NC4CC4)c3c2)ccc1F` [Example 189, 4-(5-(4-(cyclopropylamino)quinazolin-6-yl)-2-fluorobenzyl)morpholine-3,5-dione], the 50% inhibitory concentration (IC50) under setting [1] amounted to 210 nM. In the case of `COC(=O)CN(Cc1cccc(-c2ccc3ncnc(NC4CC4)c3c2)c1)C(=O)CC#N` [Example 190, methyl 2-(2-cyano-N-(3-(4-(cyclopropylamino)quinazolin-6-yl)benzyl)acetamido)acetate], the inhibition at 10 µM was determined as 58%.

Consider `CC(=O)N(Cc1cccc(-c2ccc3ncnc(NC4CC4)c3c2)c1F)C1CC1` [Example 191, N-cyclopropyl-N-(3-(4-(cyclopropylamino)quinazolin-6-yl)-2-fluorobenzyl)acetamide], for which, under setting [1], the concentration for half-maximal inhibition (IC50) is 670 nM. Regarding `O=C1C=CC(=O)N1Cc1cc(-c2ccc3ncnc(NC4CC4)c3c2)ccc1F` [Example 192, 1-(5-(4-(cyclopropylamino)quinazolin-6-yl)-2-fluorobenzyl)-1H-pyrrole-2,5-dione], the inhibition at 10 µM was found to be 41%. As to `O=C1CCC(=O)N1Cc1cc(-c2ccc3ncnc(NC4CC4)c3c2)ccc1F` [Example 193, 1-(5-(4-(cyclopropylamino)quinazolin-6-yl)-2-fluorobenzyl)pyrrolidine-2,5-dione], the IC50 under setting [1] came out at 270 nM.

Regarding `N#CCC(=O)N(Cc1cccc(-c2ccc3ncnc(NC4CC4)c3c2)c1)c1cccnc1` [Example 195, 2-cyano-N-[3-(4-cyclopropylamino-quinazolin-6-yl)-benzyl]-N-pyridin-3-yl-acetamide], the inhibition at 10 µM was 40%.

With `N#CCC(=O)N(Cc1cccc(-c2ccc3ncnc(NC4CC4)c3c2)c1F)C1CC1` [Example 197, 2-cyano-N-cyclopropyl-N-[3-(4-cyclopropylamino-quinazolin-6-yl)-2-fluoro-benzyl]-acetamide], under setting [1], the IC50 was found to be 660 nM. The same measure, in the same setting: the same measure for `CNc1ncnc2ccc(-c3cccc(CN4C(=O)CCC4=O)c3)cc12` [Example 198, 1-[3-(4-methylamino-quinazolin-6-yl)-benzyl]-pyrrolidine-2,5-dione]: 5190 nM; for `O=C1CCC(=O)N1Cc1cccc(-c2ccc3ncnc(NCc4ccccc4)c3c2)c1` [Example 199, 1-(3-(4-(benzylamino)quinazolin-6-yl)benzyl)pyrrolidine-2,5-dione]: 1250 nM.

On to `CC(=O)N(CC#N)Cc1cccc(-c2ccc3ncnc(NC4CC4)c3c2)c1` [Example 200, N-cyanomethyl-N-[3-(4-cyclopropylamino-quinazolin-6-yl)-benzyl]-acetamide], for which the inhibition at 10 µM was 40%. Same read-out and setting: the same measure for `CC(=O)OCN(Cc1cccc(-c2ccc3ncnc(NC4CC4)c3c2)c1)C(C)=O` [Example 203, {acetyl-[3-(4-cyclopropylamino-quinazolin-6-yl)-benzyl]-amino}-methyl acetate]: 39%. For `O=C(CC(F)(F)F)N(Cc1cccc(-c2ccc3ncnc(NC4CC4)c3c2)c1)C1CC1` [Example 205, N-cyclopropyl-N-[3-(4-cyclopropylamino-quinazolin-6-yl)-benzyl]-3,3,3-trifluoro-propionamide; hydrochloride], the half-maximal inhibitory concentration (IC50) under setting [1] was determined as 330 nM. Take `O=S1(=O)CCCN1Cc1cccc(-c2ccc3ncnc(NC4CC4)c3c2)c1` [Example 206, cyclopropyl-{6-[3-(1,1-dioxo-1λ^6-isothiazolidin-2-ylmethyl)-phenyl]-quinazoline-4-yl}-amine; hydrochloride]: the inhibition at 10 µM was 34%. For `CC(=O)N(Cc1cccc(-c2ccc3ncnc(NC4CC4)c3c2)c1)c1ccccc1` [Example 207, N-(3-(4-(cyclopropylamino)quinazolin-6-yl)benzyl)-N-phenylacetamide hydrochloride], the half-maximal inhibitory concentration (IC50) under setting [1] was 7170 nM.

In turn, `O=C(CF)N(Cc1cccc(-c2ccc3ncnc(NC4CC4)c3c2)c1)C1CC1` [Example 208, N-cyclopropyl-N-[3-(4-cyclopropylamino-quinazolin-6-yl)-benzyl]-2-fluoro-acetamide] showed an IC50 (IC50 mGluR5 Receptor (pig) [^3H]-MPEP Bond) of 120 nM. In the case of `CC(=O)N(Cc1cccc(-c2ccc3ncnc(NC4CC4)c3c2)c1)C1CCCC1` [Example 209, N-cyclopentyl-N-(3-(4-(cyclopropylamino)quinazolin-6-yl)benzyl)acetamide], the inhibition at 10 µM is 63%.

As for `CS(=O)(=O)N(Cc1cccc(-c2ccc3ncnc(NC4CC4)c3c2)c1)C1CCCC1` [Example 210, N-cyclopentyl-N-(3-(4-(cyclopropylamino)quinazolin-6-yl)benzyl)methane sulfonamide], the half-inhibitory concentration (IC50) under setting [1] turned out to be 6070 nM.

For orientation: inhibition means the change of the read-out against control, counted positive when it falls. Broadly, the IC50 is the midpoint of a concentration-inhibition curve.
